Measurements published in US10954567B2, “Mutations associated with resistance to inhibitors of Bruton's Tyrosine Kinase (BTK)” (Pharmacyclics LLC, priority 2012, dated 2021).
Where two headings read alike, the source gives them in different places.

What was measured:
CLL cells = test: In vitro stroma-induced CLL proliferation model (BrdU incorporation); format: cell-based, human; conditions: BTK-mutated (C481S) CLL cells, FIG. 3C, untreated 31%
CML = conditions: cited from earlier work

Compound: CC[C@H](Nc1ncnc2[nH]cnc12)c1nc2cccc(F)c2c(=O)n1-c1ccccc1 [GS-1101]
- proliferation (CLL cells): 14%

Compound: Cc1cccc(Nc2nc(N[C@@H]3CCCC[C@@H]3N)ncc2C(N)=O)c1 [PRT060318]
- proliferation (in words) (CLL cells): complete inhibition of proliferation

Compound: CCS(=O)(=O)N1CCN(c2ccc(Nc3ncc(C(N)=O)c(NC4CC4)n3)cc2)CC1 [PRT062070]
- proliferation (in words) (CLL cells): complete inhibition of proliferation

Compound: Cc1ccc(NC(=O)c2ccc(CN3CCN(C)CC3)cc2)cc1Nc1nccc(-c2cccnc2)n1 [imatinib]
- patients who relapse (CML; advanced CML): 66%
- patients who relapse (CML; chronic CML, within the first few years): 5%

Compound: C[C@@H]1CCN(C(=O)CC#N)C[C@@H]1N(C)c1ncnc2[nH]ccc12 [tofacitinib]
- proliferation (CLL cells): 21%
